Measurements taken from patent US7939542B2, “Cinnamaldehyde derivatives having improved solubility in water, a method for preparing the same and a pharmaceutical composition comprising the same” (Korea Research Institute of Bioscience and Biotechnology, priority 2008, dated 2011).

How the values were obtained:
[1] = system: human colon carcinoma SW620 cells; test: Cell cycle analysis by flow cytometry (PI staining); type: cell-based; settings: 48 hours
Protocol: In practice, when human colon carcinoma SW620 cells are dosed with 10 to 20 μM of the compound of Chemical Formula 1, the compound induces a cell cycle arrest in the G2/M phase, leading to cell growth inhibition. The inhibition of the growth of cancer cells may be tested as follows. In brief, human colon carcinoma SW620 cells were dosed with the compound dissolved in DMSO. After 48 hrs, nuclear DNA was stained with propidium iodide. The stained cells were analyzed to determine the cell cycle using a FACSCalibur cytometer (Becton-Dickinson, San Jose, Calif., USA). The proportions of cells in G1, S and G2/M phases were determined using a Becton-Dickinson Modifit cell-cycle analysis program and expressed as percentages.
For flow cytometric analysis, human colon carcinoma SW620 cells were plated in T25 flasks (containing 7.5 ml of culture medium) and cultured in RPMI 1640 and DMEM media, each of which was supplemented with 10% FBS, in an incubator at 37° C. for 12 hrs. Then, as a control, DMSO was added to the culture medium at a final concentration of 0.1% (7.5 μl). As compound treatment groups, 7.5 μl of each of compounds dissolved in DMSO at various concentrations was added to the culture medium. After 48 hours, control (DMSO) and compound-treated cells were harvested and subjected to flow cytometric analysis.
After the culture media were removed from flasks, cells were trypsinized and centrifuged at 300 g for 5 min. The collected cells were washed with phosphate buffer twice to remove culture media. The cells were then fixed in 3 ml of 70% ethanol at −20° C. for 12 hrs. The fixed cells were centrifuged at 300 g for 5 min and washed with cold PBS twice to remove remaining ethanol. The washed cells were resuspended in 500 μl of PBS, and treated with 50 μl of 100 μg/ml RNase A at 37° C. for 30 min. Then, cells were incubated in 10 μl of 1 mg/ml propidium iodide (PI) in PBS for DNA staining. The cell cycles of 20,000 stained cells were analyzed using a FACSCalibur cytometer (Becton-Dickinson, San Jose, Calif., USA). Cell cycle fractions were quantified using a Becton-Dickinson Modifit cell-cycle analysis program, and the distribution of cells in G1, S and G2/M phases was expressed as percentages.

[2] = Solubility (physicochemical properties); settings: for Solubility: Insoluble: solvents in which the compound is insoluble; for Solubility: Soluble: solvents in which the compound is soluble
[3] = system: human colon carcinoma HT-29 cells; test: Anticancer activity upon oral administration to tumor-xenografted nude mice; type: in vivo; settings: HT-29 xenograft, 10 mg/kg orally once every day, Day 18, p<0.001
Protocol: Tumor diameter was measured in three planes with a vernier caliper. Tumor volume (V) was calculated using the following Equation 1. Tumor volume=(Length×Width×Height)/2 [Equation 1]
On Day 18 of tumor transplantation, animals were sacrificed, and tumors were excised and weighed.

[4] = Body weight change in tumor-xenografted nude mice; settings: positive control 2 mg/kg, 18 days, p<0.001
Protocol: Nude mice were divided into three groups: a compound administration group, a vehicle control group and a positive control group. A 0.3-ml aliquot of human colon carcinoma HT-29 cells (3×10^7 cells/ml) was injected subcutaneously into the right axilla between the scapular region and the chest wall of mice. From the day (Day 1) after tumor transplantation to the day before sacrifice, the compound of Chemical Formula 6 was administered orally at a dose of 10 mg/kg once every day.
In order to investigate the clinical signs of drug toxicity, animals were monitored for change in body weight about three times a week during the test period.

| SMILES | Cell distribution (%) G0-G1 ([1]; SW620, 20 μM) [%] | Cell distribution (%) G2-M ([1]; SW620, 20 μM) [%] | Cell distribution (%) S ([1]; SW620, 20 μM) [%] | Solubility: Insoluble [2] | Solubility: Soluble [2] | Water solubility [2] [µM] | Cell distribution (%) G0-G1 ([1]; SW620, 30 μM) [%] | Cell distribution (%) G2-M ([1]; SW620, 30 μM) [%] | Cell distribution (%) S ([1]; SW620, 30 μM) [%] | Cell distribution (%) G0-G1 ([1]; SW620, 40 μM) [%] | Cell distribution (%) G2-M ([1]; SW620, 40 μM) [%] | Cell distribution (%) S ([1]; SW620, 40 μM) [%] | tumor growth inhibitory effect [3] [%] | weight loss [4] [%] |
| --- | --- | --- | --- | --- | --- | --- | --- | --- | --- | --- | --- | --- | --- | --- |
| COCC(=O)Oc1ccccc1/C=C/C=O [Compound of Formula 2] | 33.00 | 49.94 | 17.06 | Hexane | Alcohol, DMSO | 320 |  |  |  |  |  |  |  |  |
| O=C/C=C/c1ccccc1OCc1ccncc1 [Compound of Formula 3] | 39.80 | 33.63 | 26.57 | Hexane, H2O | Alcohol, DMSO |  |  |  |  |  |  |  |  |  |
| CN1CCN(C(=O)Oc2ccccc2/C=C/C=O)CC1 [Compound of Formula 4] |  |  |  | Hexane, H2O | Alcohol, DMSO |  | 37.50 | 45.49 | 17.01 |  |  |  |  |  |
| O=C/C=C/c1ccccc1OS(=O)(=O)c1ccccc1 [Compound of Formula 5] | 36.01 | 45.94 | 18.05 | Hexane | Alcohol, DMSO | 600 |  |  |  |  |  |  |  |  |
| Cl.O=C/C=C/c1ccccc1OCc1ccncc1 [Compound of Formula 6] | 39.80 | 33.63 | 26.57 | Hexane, acetone | Alcohol, H2O |  |  |  |  | 43.85 | 41.31 | 14.84 | 30.7 |  |
| CN1CCN(C(=O)Oc2ccccc2/C=C/C=O)CC1.Cl [Compound of Formula 7] |  |  |  | Hexane, acetone | Alcohol, H2O |  | 35.11 | 47.83 | 17.06 |  |  |  |  |  |
| COc1cccc2c1C(=O)c1c(O)c3c(c(O)c1C2=O)C[C@@](O)(C(=O)CO)C[C@@H]3O[C@H]1C[C@H](N)[C@H](O)[C@H](C)O1 [adriamycin] |  |  |  |  |  |  |  |  |  |  |  |  |  | 10.3 |
